Key:
Assay type in all cases: in vivo
ALOMY [1] = assay: Pre-emergence herbicidal activity, glasshouse pot test; settings: rate 1000 g/Ha, evaluated after 13 days, scale 0-5
Procedure: (§1) Seeds of a variety of test species were sown in standard soil in pots. After cultivation for one day (pre-emergence) under controlled conditions in a glasshouse (at 24/16° C., day/night; 14 hours light; 65% humidity), the plants were sprayed with an aqueous spray solution derived from the formulation of the technical active ingredient in acetone/water (50:50) solution containing 0.5% Tween 20 (polyoxyethelyene sorbitan monolaurate, CAS RN 9005-64-5). The test plants were then grown in a glasshouse under controlled conditions (at 24/16° C., day/night; 14 hours light; 65% humidity) and watered twice daily. After 13 days, the test was evaluated (5=total damage to plant; 0=no damage to plant).

AMARE [2] = assay: as above; settings: rate 1000 g/Ha, evaluated after 13 days, scale 0-5
Procedure: as §1

ECHCG [3] = assay: as above; settings: rate 1000 g/Ha, evaluated after 13 days, scale 0-5
Procedure: as §1

SETFA [4] = assay: as above; settings: rate 1000 g/Ha, evaluated after 13 days, scale 0-5
Procedure: as §1

ABUTH [5] = assay: Post-emergence herbicidal activity, glasshouse pot test; settings: Abutilon theophrasti; application post-emergence; rate 1000 g/Ha; evaluated after 13 days
Procedure: (§2) Seeds of a variety of test species were sown in standard soil in pots. After 8 days cultivation (post-emergence) under controlled conditions in a glasshouse (at 24/16° C., day/night; 14 hours light; 65% humidity), the plants were sprayed with an aqueous spray solution derived from the formulation of the technical active ingredient in acetone/water (50:50) solution containing 0.5% Tween 20 (polyoxyethelyene sorbitan monolaurate, CAS RN 9005-64-5). The test plants were then grown in a glasshouse under controlled conditions (at 24/16° C., day/night; 14 hours light; 65% humidity) and watered twice daily. After 13 days, the test was evaluated (5=total damage to plant; 0=no damage to plant).

ALOMY [6] = assay: as above; settings: Alopecurus myosuroides; application post-emergence; rate 1000 g/Ha; evaluated after 13 days
Procedure: as §2

AMARE [7] = assay: as above; settings: Amaranthus retroflexus; application post-emergence; rate 1000 g/Ha; evaluated after 13 days
Procedure: as §2

ECHCG [8] = assay: as above; settings: Echinochloa crus-galli; application post-emergence; rate 1000 g/Ha; evaluated after 13 days
Procedure: as §2

SETFA [9] = assay: as above; settings: Setaria faberi; application post-emergence; rate 1000 g/Ha; evaluated after 13 days
Procedure: as §2

ZEAMX [10] = assay: as above; settings: Zea mays; application post-emergence; rate 1000 g/Ha; evaluated after 13 days
Procedure: as §2

ABUTH [11] = assay: Pre-emergence herbicidal activity, glasshouse pot test; settings: rate 1000 g/Ha, evaluated after 13 days, scale 0-5
Procedure: as §1

ZEAMX [12] = assay: as above; settings: rate 1000 g/Ha, evaluated after 13 days, scale 0-5
Procedure: as §1

Row | Structure (SMILES) | ALOMY damage score, application pre-emergence (ALOMY [1]) | AMARE damage score, application pre-emergence (AMARE [2]) | ECHCG damage score, application pre-emergence (ECHCG [3]) | SETFA damage score, application pre-emergence (SETFA [4]) | Post-emergence herbicidal activity ABUTH (damage score 0-5) (ABUTH [5]) | Post-emergence herbicidal activity ALOMY (damage score 0-5) (ALOMY [6]) | Post-emergence herbicidal activity AMARE (damage score 0-5) (AMARE [7]) | Post-emergence herbicidal activity ECHCG (damage score 0-5) (ECHCG [8]) | Post-emergence herbicidal activity SETFA (damage score 0-5) (SETFA [9]) | Post-emergence herbicidal activity ZEAMX (damage score 0-5) (ZEAMX [10]) | ABUTH damage score, application pre-emergence (ABUTH [11]) | ZEAMX damage score, application pre-emergence (ZEAMX [12])
1 | CCOC1C(O)N(c2cc(C(F)(F)F)c(-c3cncnc3)cn2)C(=O)N1C (stereo not drawn) [Compound A14] | 4 | 5 | 5 | 5 | 5 | 4 | 5 | 5 | 5 | 3 | – | –
2 | CC1C(O)N(c2cc(C(F)(F)F)c(C(=O)NC(C)(C)C)cn2)C(=O)N1C (stereo not drawn) [Compound A65] | – | 5 | 5 | 5 | 5 | – | 5 | 5 | 5 | 5 | 5 | 3
3 | CC1C(O)N(c2cc(Cl)ccn2)C(=O)N1C (stereo not drawn) [Compound A92] | – | 5 | 5 | 4 | 5 | – | 5 | 5 | 5 | 4 | 5 | 3
4 | CON1C(=O)N(c2ccc(C(F)(F)F)cn2)C(O)C1C (stereo not drawn) [Compound A80] | – | 5 | 5 | 4 | 5 | – | 5 | 5 | 5 | 4 | 5 | 2
5 | CON1C(=O)N(c2cc(Cl)c(C(=O)NC(C)(C)C)cn2)C(O)C1C (stereo not drawn) [Compound A70] | – | 5 | 5 | 5 | 5 | – | 5 | 5 | 5 | 5 | 5 | 3
6 | CC1NC(=O)N(c2cc(C(F)(F)Cl)ccn2)C1O (stereo not drawn) [Compound A91] | – | 5 | 4 | 4 | 5 | – | 5 | 5 | 4 | 3 | 5 | 2
7 | CCN1C(=O)N(c2cc(C(F)(F)F)ccn2)C(O)C1C (stereo not drawn) [Compound A88] | – | 5 | 4 | 4 | 5 | – | 5 | 5 | 5 | 3 | 5 | 2
8 | C[C@@H]1C(O)N(c2cc(C(F)(F)F)ccn2)C(=O)N1C (mixture of isomers) [Compound A38, (4R,5R)-4-hydroxy-1,5-dimethyl-3-[4-(trifluoromethyl)-2-pyridyl]imidazolidin-2-one and (4S,5R)-4-hydroxy-1,5-dimethyl-3-[4-(trifluoromethyl)-2-pyridyl]imidazolidin-2-one] | – | 5 | 5 | 5 | 5 | – | 5 | 5 | 5 | 4 | 5 | 3
9 | CC1C(O)N(c2cc(C(F)(F)F)ccn2)C(=O)N1C(F)F (stereo not drawn) [Compound A106] | – | 5 | 4 | 3 | 5 | – | 5 | 4 | 4 | 1 | 5 | 2
10 | CON1C(=O)N(c2cc(C(F)(F)C(F)(F)F)ccn2)C(O)C1C (stereo not drawn) [Compound A73] | – | 5 | 4 | 5 | 5 | – | 5 | 5 | 5 | 3 | 5 | 3
11 | COCN1C(=O)N(c2cc(C(F)(F)F)ccn2)C(O)C1C (stereo not drawn) [Compound A76] | – | 5 | 3 | 4 | 5 | – | 5 | 4 | 4 | 1 | 5 | 2
12 | CCO[C@@H]1C(O)N(c2cc(C(F)(F)F)ccn2)C(=O)N1C (single isomer, unassigned) [Compound A34] | – | 5 | 5 | 5 | 5 | – | 5 | 5 | 5 | 4 | 5 | 3
13 | COC[C@H]1C(O)N(c2cc(C(F)(F)F)ccn2)C(=O)N1C (stereo partly drawn) [Compound A78] | – | 5 | 4 | 3 | 5 | – | 5 | 5 | 3 | 0 | 5 | 1
14 | COCc1cnc(N2C(=O)N(C)C(C)C2O)cc1C(F)(F)F (stereo not drawn) [Compound A105] | – | 5 | 5 | 5 | 5 | – | 5 | 5 | 5 | 5 | 5 | 4
15 | CC1C(O)N(c2cc(C(F)(F)F)ccn2)C(=O)N1O (stereo not drawn) [Compound A64] | – | 5 | 4 | 3 | 4 | – | 5 | 5 | 4 | 1 | 2 | 2

From patent US11608323B2 (SYNGENTA LIMITED, priority 2013, dated 2023)
